Each structure is given as a SMILES string. pIC50: −log10 of the molar value.

One data set has as its system Aβ42. Briefly: Screening for γ-secretase-modulating activity: Aβ42 in supernatant of SKNBE2 cells carrying hAPP 695 wild type (Alphalisa). The note with it: overnight incubation, Alphalisa on supernatant. Format: cell-based, human. Summed up:
(§1)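 Secreted Aβ42 (C-terminal/N-terminal antibody pair) and Aβtotal (N-terminal/mid-region pair) were quantified by AlphaLISA after overnight compound exposure of wild-type hAPP 695 SKNBE2 cells at 37 °C. Values expressed relative to compound-free maximum, with IC50 from nonlinear 4-parameter regression.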

Another data set has as its system Aβtotal. In words: Screening for γ-secretase-modulating activity: Aβtotal in supernatant of SKNBE2 cells carrying hAPP 695 wild type (Alphalisa). It is filed as cell-based, human. As to conditions: overnight incubation, Alphalisa on supernatant. The method, boiled down:
as §1
On the technique in general: Bead proximity is the source of the signal in Alpha formats.

[1] abbreviates: SKNBE2 human neuroblastoma cells carrying hAPP 695 wild type.
The mark [2] stands for this setting: Homo sapiens, SKNBE2, SKNBE2 human neuroblastoma cells carrying hAPP 695 wild type.

As for `COc1c(C#N)ccc2[nH]c(-c3cn4c(n3)C(c3c(C)cccc3F)OCC4)cc12` (stereo not drawn) [Compound 139, 2-[8-(2-fluoro-6-methylphenyl)-5,6-dihydro-8H-imidazo[2,1-c][1,4]oxazin-2-yl]-4-methoxy-1H-indole-5-carbonitrile], the melting point stood at 296.2 °C. In the data set with Aβ42 (setting [1]), this compound gave a pIC50 of 5.79. In the data set with Aβtotal (setting [1]), the negative-log IC50 (pIC50) is < 5.00.
The matching figures for `COc1c(C#N)ccc2[nH]c(-c3nc4n(n3)CCOC4c3cccc(F)c3C)cc12` (stereo not drawn) [Compound 150, 2-[8-(3-fluoro-2-methylphenyl)-5,6-dihydro-8H-[1,2,4]triazolo[5,1-c][1,4]oxazin-2-yl]-4-methoxy-1H-indole-5-carbonitrile]: 238.2 °C, 5.66 and < 5.00.
The compound `Cc1cn(-c2ccc3[nH]c(-c4nc5n(n4)CCOC5c4cccc(F)c4C)cc3c2)cn1` (stereo not drawn) [Compound 36, 8-(3-fluoro-2-methylphenyl)-5,6-dihydro-2-[5-(4-methyl-1H-imidazol-1-yl)-1H-indol-2-yl]-8H-[1,2,4]triazolo[5,1-c][1,4]oxazine] displayed a melting point of 261.3 °C. Besides, the pIC50 in the data set with Aβ42 (setting [2]) was 7.21. Also, in the data set on Aβtotal (setting [2]), the pIC50 was < 5.00.
In turn, `Cc1cc(F)ccc1C1OCCn2nc(-c3cc4cc(C#N)ccc4[nH]3)nc21` (single isomer, unassigned) [Compound 97, 2-[8-(4-fluoro-2-methylphenyl)-5,6-dihydro-8H-[1,2,4]triazolo[5,1-c][1,4]oxazin-2-yl]-1H-indole-5-carbonitrile] yielded a melting point of 255 °C. Further, in the data set on Aβ42 (setting [1]), the negative-log IC50 (pIC50) was 6.66. Moreover, in the data set with Aβtotal (setting [2]), the pIC50 was < 5.00.
The compound `COc1c(C#N)ccc2[nH]c(-c3nc4n(n3)CCOC4c3ccc(F)c(Cl)c3)cc12` (stereo not drawn) [Compound 157, 2-[8-(3-chloro-4-fluorophenyl)-5,6-dihydro-8H-[1,2,4]triazolo[5,1-c][1,4]oxazin-2-yl]-4-methoxy-1H-indole-5-carbonitrile] gave a melting point of 265.5 °C. The compound also had a pIC50 with Aβ42 (setting [1]) of 5.12. Besides, in the data set with Aβtotal (setting [1]), the negative-log IC50 (pIC50) is < 5.00.
In the case of `Cc1c(F)cccc1C1OCCn2nc(-c3cc4cc(C#N)ccc4[nH]3)nc21` (stereo not drawn) [Compound 1, 2-[8-(3-fluoro-2-methylphenyl)-5,6-dihydro-8H-[1,2,4]triazolo[5,1-c][1,4]oxazin-2-yl]-1H-indole-5-carbonitrile], the melting point worked out at 225.2 °C. The pIC50 in the data set with Aβ42 (setting [2]) is 6.53. In the data set with Aβtotal (setting [2]), the pIC50 is < 5.00.
With `Cc1cc(F)ccc1C1OCCn2nc(-c3cc4cc(C#N)ccc4[nH]3)nc21` (single isomer, unassigned) [Compound 98, 2-[8-(4-fluoro-2-methylphenyl)-5,6-dihydro-8H-[1,2,4]triazolo[5,1-c][1,4]oxazin-2-yl]-1H-indole-5-carbonitrile], the melting point stood at 253.5 °C. For the same compound, the pIC50 in the data set on Aβ42 (setting [1]) is 5.26. Further, the pIC50 in the data set with Aβtotal (setting [1]) is < 5.00.
In the case of `COc1c(C#N)ccc2[nH]c(-c3cn4c(n3)C(c3cc(F)ccc3C)OCC4)cc12` (stereo not drawn) [Compound 159, 2-[8-(5-fluoro-2-methylphenyl)-5,6-dihydro-8H-imidazo[2,1-c][1,4]oxazin-2-yl]-4-methoxy-1H-indole-5-carbonitrile], the melting point was 277.1 °C. Also, in the data set on Aβ42 (setting [1]), the pIC50 was 6.17. In the data set on Aβtotal (setting [1]), the pIC50 is < 5.00.
The matching figures for `COc1c(C#N)ccc2[nH]c(-c3nc4n(n3)CCOC4c3ccccc3Cl)cc12` (stereo not drawn) [Compound 137, 2-[8-(2-chlorophenyl)-5,6-dihydro-8H-[1,2,4]triazolo[5,1-c][1,4]oxazin-2-yl]-4-methoxy-1H-indole-5-carbonitrile]: 197.5 °C, 7.31 and < 5.00.
Consider `Cc1cn(-c2ccc3[nH]c(-c4nc5n(n4)CCOC5c4ccc(F)cc4C(C)C)cc3c2)cn1` (stereo not drawn) [Compound 100, 8-[4-fluoro-2-(1-methylethyl)phenyl]-5,6-dihydro-2-[5-(4-methyl-1H-imidazol-1-yl)-1H-indol-2-yl]-8H-[1,2,4]triazolo[5,1-c][1,4]oxazine], for which the melting point worked out at 297.5 °C. The compound further gave a pIC50 in the data set with Aβ42 (setting [2]) of 7.32. Moreover, in the data set with Aβtotal (setting [2]), the pIC50 is < 5.00.
Compound `Cc1cc(F)ccc1C1CCCn2nc(-c3cc4nc(-c5cnn(C)c5)ccc4[nH]3)nc21` (stereo not drawn) [Compound 32, 8-(4-fluoro-2-methylphenyl)-5,6,7,8-tetrahydro-2-[5-(1-methyl-1H-pyrazol-4-yl)-1H-pyrrolo[3,2-b]pyridin-2-yl]-[1,2,4]triazolo[1,5-a]pyridine] displayed a melting point of 281.7 °C. In the data set with Aβ42 (setting [1]), this compound had a pIC50 of 6.83. For the same compound, the pIC50 in the data set with Aβtotal (setting [2]) is < 5.00.
`Cc1cc(-c2ccc3[nH]c(-c4cn5c(n4)C(c4ccc(F)cc4C)OCC5)cc3c2)ccn1` (stereo not drawn) [Compound 103, 8-(4-fluoro-2-methylphenyl)-5,6-dihydro-2-[5-(2-methyl-4-pyridinyl)-1H-indol-2-yl]-8H-imidazo[2,1-c][1,4]oxazine] yielded a melting point of 191.8 °C. Besides, in the data set on Aβ42 (setting [2]), the pIC50 was 7.59. Also, in the data set on Aβtotal (setting [2]), the pIC50 is < 5.00.
With `Cc1cn(-c2ccc3[nH]c(-c4nc5n(n4)CCOC5c4cc(F)c(F)c(C)c4C)cc3c2)cn1` (stereo not drawn) [Compound 116, 8-(4,5-difluoro-2,3-dimethylphenyl)-5,6-dihydro-2-[5-(4-methyl-1H-imidazol-1-yl)-1H-indol-2-yl]-8H-[1,2,4]triazolo[5,1-c][1,4]oxazine], the melting point came out at 285.1 °C. The same compound gave a pIC50 in the data set on Aβ42 (setting [2]) of 7.48. Besides, the pIC50 in the data set on Aβtotal (setting [2]) was < 5.00.
For the compound `COc1c(C#N)ccc2[nH]c(-c3nc4n(n3)CCOC4c3ccc(F)c(Cl)c3)cc12` (stereo not drawn) [Compound 156, 2-[8-(3-chloro-4-fluorophenyl)-5,6-dihydro-8H-[1,2,4]triazolo[5,1-c][1,4]oxazin-2-yl]-4-methoxy-1H-indole-5-carbonitrile], the melting point amounted to 267.3 °C. Also, in the data set on Aβ42 (setting [1]), the pIC50 is 7.07. The pIC50 in the data set with Aβtotal (setting [1]) was < 5.00.
`COc1c(C#N)ccc2[nH]c(-c3nc4n(n3)CCOC4c3c(C)cccc3F)cc12` (stereo not drawn) [Compound 141, 2-[8-(2-fluoro-6-methylphenyl)-5,6-dihydro-8H-[1,2,4]triazolo[5,1-c][1,4]oxazin-2-yl]-4-methoxy-1H-indole-5-carbonitrile] had a melting point of 244.4 °C. For the same compound, the pIC50 with Aβ42 (setting [1]) is 7.55. Moreover, the negative logarithm of the IC50 (pIC50) with Aβtotal (setting [1]) was < 5.00.
On to `COc1c(-n2cnc(C)c2)ccc2[nH]c(-c3nc4n(n3)CCCC4c3ccc(F)cc3C)cc12` (single isomer, unassigned) [Compound 83, 8-(4-fluoro-2-methylphenyl)-5,6,7,8-tetrahydro-2-[4-methoxy-5-(4-methyl-1H-imidazol-1-yl)-1H-indol-2-yl]-[1,2,4]triazolo[1,5-a]pyridine], for which the results for the pIC50 with Aβ42 (setting [1]) and in the data set on Aβtotal (setting [1]) were 7.85 and 5.63, respectively.
As for `COc1c(C#N)ccc2[nH]c(-c3cn4c(n3)C(c3cccc(F)c3C)OCC4)cc12` (stereo not drawn) [Compound 42, 2-[8-(3-fluoro-2-methylphenyl)-5,6-dihydro-8H-imidazo[2,1-c][1,4]oxazin-2-yl]-4-methoxy-1H-indole-5-carbonitrile], the results for the pIC50 in the data set with Aβ42 (setting [1]) and with Aβtotal (setting [1]) were 6.33 and < 5.00, respectively.
For `Cc1cc(F)ccc1C1OCCn2cc(-c3cc4nc(-c5cnn(C)c5)ccc4[nH]3)nc21` (single isomer, unassigned) [Compound 101, 8-(4-fluoro-2-methylphenyl)-5,6-dihydro-2-[5-(1-methyl-1H-pyrazol-4-yl)-1H-pyrrolo[3,2-b]pyridin-2-yl]-8H-imidazo[2,1-c][1,4]oxazine], the pIC50 in the data set with Aβ42 (setting [1]) is 5.66; in the data set on Aβtotal (setting [2]), < 5.00.
As to `Cc1cn(-c2ccc3[nH]c(-c4nc5n(n4)CCCC5c4ccc(F)cc4C)cc3n2)cn1` (stereo not drawn) [Compound 66, 8-(4-fluoro-2-methylphenyl)-5,6,7,8-tetrahydro-2-[5-(4-methyl-1H-imidazol-1-yl)-1H-pyrrolo[3,2-b]pyridin-2-yl]-[1,2,4]triazolo[1,5-a]pyridine], the pIC50 is 6.35 in the data set on Aβ42 (setting [1]) and < 5.00 in the data set with Aβtotal (setting [1]).
Regarding `COc1c(C#N)ccc2[nH]c(-c3nc4n(n3)CCOC4c3ccc(F)c(Cl)c3)cc12` (stereo not drawn) [Compound 144, 2-[8-(3-chloro-4-fluorophenyl)-5,6-dihydro-8H-[1,2,4]triazolo[5,1-c][1,4]oxazin-2-yl]-4-methoxy-1H-indole-5-carbonitrile], the pIC50 in the data set with Aβ42 (setting [1]) is 6.67; with Aβtotal (setting [2]) it was < 5.00.
On to `COc1c(C#N)ccc2[nH]c(-c3cn4c(n3)C(c3cc(C(F)(F)F)ccc3F)OCC4)cc12` (stereo not drawn) [Compound 128, 2-[8-[2-fluoro-5-(trifluoromethyl)phenyl]-5,6-dihydro-8H-imidazo[2,1-c][1,4]oxazin-2-yl]-4-methoxy-1H-indole-5-carbonitrile], for which the pIC50 in the data set with Aβ42 (setting [1]) is 7.22; with Aβtotal (setting [2]), < 5.00.
In the case of `COc1c(C#N)ccc2[nH]c(-c3cn4c(n3)C(c3cc(C(F)(F)F)ccc3F)OCC4)cc12` (stereo not drawn) [Compound 165, 2-[8-[2-fluoro-5-(trifluoromethyl)phenyl]-5,6-dihydro-8H-imidazo[2,1-c][1,4]oxazin-2-yl]-4-methoxy-1H-indole-5-carbonitrile], the pIC50 in the data set with Aβ42 (setting [1]) is 5.36; in the data set with Aβtotal (setting [1]), < 5.00.
The corresponding values for `Cc1cn(-c2cnc3[nH]c(-c4nc5n(n4)CCCC5c4ccc(F)cc4C)cc3c2)cn1` (single isomer, unassigned) [Compound 87, 8-(4-fluoro-2-methylphenyl)-5,6,7,8-tetrahydro-2-[5-(4-methyl-1H-imidazol-1-yl)-1H-pyrrolo[2,3-b]pyridin-2-yl]-[1,2,4]triazolo[1,5-a]pyridine] are 6.35 and < 5.00.
For the compound `COc1c(C#N)ccc2[nH]c(-c3cn4c(n3)C(c3c(F)cccc3C(F)(F)F)OCC4)cc12` (stereo not drawn) [Compound 126, 2-[8-[2-fluoro-6-(trifluoromethyl)phenyl]-5,6-dihydro-8H-imidazo[2,1-c][1,4]oxazin-2-yl]-4-methoxy-1H-indole-5-carbonitrile], the pIC50 in the data set with Aβ42 (setting [1]) was 7.26; in the data set on Aβtotal (setting [2]), < 5.00.

A word on the pIC50: it is −log10 of the IC50, conventionally taken in molar units. By melting point is commonly meant the temperature of the solid-liquid transition.

(Values after US9115143B2, “Substituted indole derivatives as gamma secretase modulators” (Janssen Pharmaceuticals, Inc., priority 2011, dated 2015).)
